Laboratory results from patent publication US20220289753A1, “SHP2 INHIBITORS” (IRBM S.P.A., priority 2019, published 2022).
pIC50: −log10 of the molar value.

What was measured:
[1] = molecular target: T1, SHP-2 enzyme (Met1-Leu525) (Homo sapiens, UniProt Q06124); assay: SHP2 inhibition enzymatic assay (DiFMUP substrate, IRS1 peptide activation); format: biochemical; conditions: SHP2 wt; activated by 500 nM IRS1 peptide; 75 μM DiFMUP substrate
T1 construct: synthetized by Origene, Met1-Leu525, cat #TP750155; purchased Origene TP750155
T1 sequence (Q06124 1-525): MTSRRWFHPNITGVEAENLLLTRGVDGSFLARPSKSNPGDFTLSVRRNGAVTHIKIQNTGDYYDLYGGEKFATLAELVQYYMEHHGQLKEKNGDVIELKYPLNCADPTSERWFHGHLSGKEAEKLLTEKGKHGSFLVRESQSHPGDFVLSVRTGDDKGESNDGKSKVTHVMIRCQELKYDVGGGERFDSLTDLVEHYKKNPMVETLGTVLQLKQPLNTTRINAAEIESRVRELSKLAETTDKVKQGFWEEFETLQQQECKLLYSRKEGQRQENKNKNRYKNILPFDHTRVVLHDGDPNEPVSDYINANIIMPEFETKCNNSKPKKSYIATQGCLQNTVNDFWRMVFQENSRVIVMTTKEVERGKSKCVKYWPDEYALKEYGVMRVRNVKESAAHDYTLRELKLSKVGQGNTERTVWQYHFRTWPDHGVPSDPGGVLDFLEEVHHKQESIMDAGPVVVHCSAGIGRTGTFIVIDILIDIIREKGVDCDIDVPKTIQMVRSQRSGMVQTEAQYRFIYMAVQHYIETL
How it was run: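 SHP-2 (Met1-Leu525, 0.5 nM final) preincubated 30 min with compounds and IRS1 activating peptide in HEPES pH 7.2 buffer with NaCl, KCl, EDTA, tween-20, 5 mM DTT. DiFMUP then added for 30 min at room temperature and fluorescence read. IC50 from four-parameter logistic fit of % inhibition.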

[2] = tested on: ERK phosphorylation in KYSE-520 cells; assay: Phospho-ERK cellular assay (Advanced phospho-ERK1/2 (Thr202/Tyr204) TR-FRET kit); format: cell-based; conditions: Homo sapiens, KYSE-520, 2 h, KYSE-520 cells, 2 h at 37° C., TR-FRET; read-out: pERK IC50
How it was run: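 KYSE-520 cells were treated 2 h at 37° C with serially diluted compounds, then lysed. Phospho-ERK1/2 (Thr202/Tyr204) was detected by TR-FRET after overnight antibody incubation at room temperature. IC50 came from a four-parameter logistic fit; lower signal reflects greater SHP2 inhibition.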

pIC50 [1]	pIC50 [2]	Compound
> 6.30	> 6.00	Nc1nccc(Sc2cnc3[nH]c(N4CCC5(CC4)Cc4c(F)cccc4[C@H]5N)nc3n2)c1Cl [Example 206, (S)-1′-(5-((2-amino-3-chloropyridin-4-yl)thio)-1H-imidazo[4,5-b]pyrazin-2-yl)-4-fluoro-1,3-dihydrospiro[indene-2,4′-piperidin]-1-amine]
> 6.30	5.30 to 6.00	N[C@@H]1c2cccnc2CC12CCN(c1nc3ncc(Sc4ccnc(NC5CC5)c4Cl)nc3[nH]1)CC2 [Example 161, (S)-1′-(6-((3-chloro-2-(cyclopropylamino)pyridin-4-yl)thio)-1H-imidazo[4,5-b]pyrazin-2-yl)-5,7-dihydrospiro[cyclopenta[b]pyridine-6,4′-piperidin]-5-amine]
> 6.30	5.30 to 6.00	CC1(N)CCN(c2nc3nc(Sc4cccc5ccccc45)cnc3[nH]2)CC1 [Example 60, 4-methyl-1-(5-(naphthalen-1-ylthio)-1H-imidazo[4,5-b]pyrazin-2-yl)piperidin-4-amine]
> 6.30	5.30 to 6.00	N[C@@H]1c2cc(F)ccc2CC12CCN(c1nc3nc(Sc4cccn5ccnc45)cnc3[nH]1)CC2 [Example 192, (S)-6-fluoro-1′-(5-(imidazo[1,2-a]pyridin-8-ylthio)-1H-imidazo[4,5-b]pyrazin-2-yl)-1,3-dihydrospiro[indene-2,4′-piperidin]-1-amine]
> 6.30	> 6.00	C[C@@H]1OCC2(CCN(c3cc4nc(Sc5ccnc(N)c5Cl)cnc4[nH]3)CC2)[C@@H]1N [Example 268, (3S,4S)-8-(2-((2-amino-3-chloropyridin-4-yl)thio)-5H-pyrrolo[2,3-b]pyrazin-6-yl)-3-methyl-2-oxa-8-azaspiro[4.5]decan-4-amine]
> 6.30	5.30 to 6.00	N[C@@H]1c2cccnc2CC12CCN(c1nc3ncc(Sc4cccc5c4CCC(=O)N5)nc3[nH]1)CC2 [Example 170, (S)-5-((2-(5-amino-5,7-dihydrospiro[cyclopenta[b]pyridine-6,4′-piperidin]-1′-yl)-1H-imidazo[4,5-b]pyrazin-5-yl)thio)-3,4-dihydroquinolin-2(1H)-one]
> 6.30	5.30 to 6.00	N[C@@H]1c2ccccc2CC12CCN(c1nc3nc(Sc4ccc5cc[nH]c5c4)cnc3[nH]1)CC2 [Example 193, (S)-1′-(5-((1H-indol-6-yl)thio)-1H-imidazo[4,5-b]pyrazin-2-yl)-1,3-dihydrospiro[indene-2,4′-piperidin]-1-amine]
> 6.30	> 6.00	Cn1ccc(Sc2cnc3nc(N4CCC5(CC4)Cc4ccccc4[C@H]5N)[nH]c3n2)c(Cl)c1=O [Example 166, (S)-4-((2-(1-amino-1,3-dihydrospiro[indene-2,4′-piperidin]-1′-yl)-1H-imidazo[4,5-b]pyrazin-6-yl)thio)-3-chloro-1-methylpyridin-2(1H)-one]
> 6.30	> 6.00	N[C@@H]1c2cccnc2CC12CCN(c1nc3nc(Sc4cccnc4C(F)(F)F)cnc3[nH]1)CC2 [Example 139, (S)-1′-(5-((2-(trifluoromethyl)pyridin-3-yl)thio)-1H-imidazo[4,5-b]pyrazin-2-yl)-5,7-dihydrospiro[cyclopenta[b]pyridine-6,4′-piperidin]-5-amine]
> 6.30	5.30 to 6.00	COc1ccc2nccc(Sc3cnc4[nH]c(N5CCC6(CC5)Cc5ccccc5[C@H]6N)nc4n3)c2n1 [Example 220, (S)-1′-(5-((6-methoxy-1,5-naphthyridin-4-yl)thio)-1H-imidazo[4,5-b]pyrazin-2-yl)-1,3-dihydrospiro[indene-2,4′-piperidin]-1-amine]
> 6.30	< 5.30	N[C@@H]1c2ncccc2OC12CCN(c1nc3nc(Sc4ccncc4Cl)cnc3[nH]1)CC2 [Example 163, (R)-1′-(5-((3-chloropyridin-4-yl)thio)-1H-imidazo[4,5-b]pyrazin-2-yl)-3H-spiro[furo[3,2-b]pyridine-2,4′-piperidin]-3-amine]
> 6.30	> 6.00	N[C@@H]1c2ccccc2CC12CCN(c1nc3nc(Sc4ccc[n+]([O-])c4C(F)(F)F)cnc3[nH]1)CC2 [Example 141, (S)-3-((2-(1-amino-1,3-dihydrospiro[indene-2,4′-piperidin]-1′-yl)-1H-imidazo[4,5-b]pyrazin-5-yl)thio)-2-(trifluoromethyl)pyridine 1-oxide]
> 6.30	5.30 to 6.00	N#Cc1c[nH]c2nccc(Sc3cnc4[nH]c(N5CCC6(CC5)Cc5ccccc5[C@H]6N)nc4n3)c12 [Example 240, (S)-4-((2-(1-amino-1,3-dihydrospiro[indene-2,4′-piperidin]-1′-yl)-1H-imidazo[4,5-b]pyrazin-5-yl)thio)-1H-pyrrolo[2,3-b]pyridine-3-carbonitrile]
> 6.30	> 6.00	Nc1nccc(Sc2cnc3[nH]c(N4CCC5(CC4)Cc4ncccc4[C@H]5N)cc3n2)c1Cl [Example 267, (S)-1′-(2-((2-amino-3-chloropyridin-4-yl)thio)-5H-pyrrolo[2,3-b]pyrazin-6-yl)-5,7-dihydrospiro[cyclopenta[b]pyridine-6,4′-piperidin]-5-amine]
> 6.30	< 5.30	N[C@@H]1c2cccnc2CC12CCN(c1nc3ncc(Sc4cc(Cl)c5[nH]c(=O)oc5c4)nc3[nH]1)CC2 [Example 168, (S)-6-((2-(5-amino-5,7-dihydrospiro[cyclopenta[b]pyridine-6,4′-piperidin]-1′-yl)-1H-imidazo[4,5-b]pyrazin-6-yl)thio)-4-chlorobenzo[d]oxazol-2(3H)-one]
> 6.30	> 6.00	N[C@@H]1c2ccccc2CC12CCN(c1cc3nc(Sc4cccc(Cl)c4Cl)cnc3[nH]1)CC2 [Example 243, (S)-1′-(2-((2,3-dichlorophenyl)thio)-5H-pyrrolo[2,3-b]pyrazin-6-yl)-1,3-dihydrospiro[indene-2,4′-piperidin]-1-amine]
> 6.30	> 6.00	CC(=O)Nc1nccc(Sc2cnc3[nH]c(N4CCC5(CC4)Cc4ccccc4[C@H]5N)nc3n2)c1Cl [Example 147, (S)-N-(4-((2-(1-amino-1,3-dihydrospiro[indene-2,4′-piperidin]-1′-yl)-1H-imidazo[4,5-b]pyrazin-5-yl)thio)-3-chloropyridin-2-yl)acetamide]
> 6.30	> 6.00	N[C@@H]1c2ccccc2CC12CCN(c1nc3ncc(Sc4ccnc5cccnc45)nc3[nH]1)CC2 [Example 164, (S)-1′-(6-((1,5-naphthyridin-4-yl)thio)-1H-imidazo[4,5-b]pyrazin-2-yl)-1,3-dihydrospiro[indene-2,4′-piperidin]-1-amine]
> 6.30	< 5.30	Nc1nccc(Sc2cnc3[nH]c(N4CCC5(CC4)Cc4ccccc4[C@H]5N)nc3n2)c1F [Example 222, (S)-1′-(5-((2-amino-3-fluoropyridin-4-yl)thio)-1H-imidazo[4,5-b]pyrazin-2-yl)-1,3-dihydrospiro[indene-2,4′-piperidin]-1-amine]
> 6.30	> 6.00	N[C@@H]1c2ccccc2CC12CCN(c1nc3nc(Sc4ccnc(NC5CC5)c4Cl)cnc3[nH]1)CC2 [Example 160, (S)-1′-(5-((3-chloro-2-(cyclopropylamino)pyridin-4-yl)thio)-1H-imidazo[4,5-b]pyrazin-2-yl)-1,3-dihydrospiro[indene-2,4′-piperidin]-1-amine]
